Results published in ChEMBL document CHEMBL3400043, “Design, synthesis and biological evaluation of GY3-based derivatives for anti-type 2 diabetes activity” (Bioorg Med Chem Lett, 2015).
Calls of active or inactive are those of the source. The rule behind the calls is not given here.

Experiments:
[1] = test system: Mus musculus; assay: Hypoglycemic effect in eight week old female db/db mouse assessed as reduction in blood glucose level at 30 mg/kg, intragastric for 1 week; type: functional; details: po, 168 h
[2] = test system: HepG2; assay: Induction of glucose consumption in human HepG2 cells at 10^-7 M after 24 hrs by glucose oxidase method relative to control; type: functional
[3] = test system: Mus musculus; assay: Toxicity in eight week old female db/db mouse assessed as effect on body weight at 30 mg/kg, intragastric for 3 weeks; type: organism-based; design: dose 30 mg/kg, route intragastric; details: in vivo, po, 504 h
[4] = test system: HepG2; assay: Induction of glucose consumption in human HepG2 cells at 10^-5 M after 24 hrs by glucose oxidase method relative to control; type: functional
[5] = test system: Mus musculus; assay: Reduction in total cholesterol level in eight week old female db/db mouse at 30 mg/kg, intragastric for 3 weeks; type: functional, organism-based; design: dose 30 mg/kg
[6] = test system: Mus musculus; assay: Hypoglycemic effect in eight week old female db/db mouse assessed as reduction in blood glucose level at 30 mg/kg, intragastric for 3 weeks; type: functional; details: po, 504 h
[7] = target: T1, Peroxisome proliferator-activated receptor gamma (Homo sapiens) (UniProt P37231); assay: Agonist activity at human PPARgamma expressed in U2OS cells coexpressing human RXR assessed as luciferase activity at 10 uM after 24 hrs by transactivation assay relative to control; type: cell-based
T1 sequence (whole entry): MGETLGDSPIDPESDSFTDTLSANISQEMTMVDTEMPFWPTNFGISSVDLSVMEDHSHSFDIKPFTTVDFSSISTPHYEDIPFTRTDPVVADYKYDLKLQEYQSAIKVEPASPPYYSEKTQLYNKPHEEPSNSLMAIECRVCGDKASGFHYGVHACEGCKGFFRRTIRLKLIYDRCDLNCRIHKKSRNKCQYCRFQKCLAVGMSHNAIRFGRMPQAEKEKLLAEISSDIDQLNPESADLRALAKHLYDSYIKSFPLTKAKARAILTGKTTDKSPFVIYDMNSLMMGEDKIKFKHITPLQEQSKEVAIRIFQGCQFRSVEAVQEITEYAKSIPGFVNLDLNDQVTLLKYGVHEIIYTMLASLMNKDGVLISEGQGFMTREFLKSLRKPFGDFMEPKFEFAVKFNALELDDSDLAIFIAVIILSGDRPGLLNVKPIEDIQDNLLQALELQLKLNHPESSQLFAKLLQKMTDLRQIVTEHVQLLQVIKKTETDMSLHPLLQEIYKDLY

[8] = test system: HepG2; assay: Induction of glucose consumption in human HepG2 cells at 10^-5 M after 24 hrs by glucose oxidase method (reference value: 2 +/- 0.09 mM); type: functional
[9] = test system: HepG2; assay: Induction of glucose consumption in human HepG2 cells at 10^-6 M after 24 hrs by glucose oxidase method relative to control; type: functional
[10] = test system: Mus musculus; assay: Toxicity in eight week old female db/db mouse assessed as body weight increase at 30 mg/kg, intragastric for 3 weeks; type: organism-based; design: dose 30 mg/kg, route intragastric; details: in vivo, po, 504 h
[11] = test system: Mus musculus; assay: Hypoglycemic effect in eight week old female db/db mouse assessed as reduction in fasting triglyceride level at 30 mg/kg, intragastric for 3 weeks; type: functional, organism-based; design: dose 30 mg/kg
[12] = test system: Mus musculus; assay: Hypoglycemic effect in eight week old female db/db mouse assessed as reduction in blood glucose level at 30 mg/kg, intragastric for 2 weeks; type: functional; details: po, 336 h
[13] = test system: HepG2; assay: Induction of glucose consumption in human HepG2 cells at 10^-3 M after 24 hrs by glucose oxidase method relative to control; type: functional
[14] = test system: HepG2; assay: Induction of glucose consumption in human HepG2 cells at 10^-3 M after 24 hrs by glucose oxidase method (reference value: 2 +/- 0.09 mM); type: functional

Structure (SMILES)	Ratio [7]	Activity [4] [%]	Activity [8] [mM]	further results
C[C@@H]1[C@@H](CC(=O)O)c2cc(OCc3ccccc3)ccc2N1S(=O)(=O)c1ccc(Cl)cc1	2.37	16.3	2.33	–
CCc1ccc(CCOc2ccc(CC3SC(=O)NC3=O)cc2)nc1 (stereo not drawn) [PIOGLITAZONE]	–	–	–	inhibition in vivo at 30 mg/kg [1]: > 25%; Activity [10]: 16.3%; inhibition in vivo at 30 mg/kg [6]: 30.6%; inhibition [11]: Active; inhibition in vivo at 30 mg/kg [12]: > 30%
CN(CCOc1ccc(CC2SC(=O)NC2=O)cc1)c1ccccn1 (stereo not drawn) [ROSIGLITAZONE]	–	26.5	2.53	–
C[C@@H]1[C@@H](CC(=O)O)c2cc(OCc3ccccc3)ccc2N1C(=O)c1ccc(C(F)(F)F)cc1	1.72	9.8	2.2	–
C[C@@H]1[C@@H](CC(=O)O)c2cc(OCc3ccccc3)ccc2N1C(=O)c1ccncc1	1.73	22.6	2.46	Activity [2]: -4.1%; inhibition in vivo at 30 mg/kg [6]: 14.9%; inhibition [11]: Active; Activity [9]: -4.6%; inhibition in vivo at 30 mg/kg [12]: > 30%
C[C@@H]1[C@@H](CC(=O)O)c2cc(OCc3cccnc3)ccc2N1C(=O)c1ccc(Cl)cc1	1.62	-6.7	1.87	–
CC(Oc1ccc2c(c1)[C@H](CC(=O)O)[C@@H](C)N2C(=O)c1ccc(Cl)cc1)c1ccccc1 (stereo partly drawn)	1.66	9.8	2.2	–
C[C@@H]1[C@@H](CC(=O)O)c2cc(OCc3ccncc3)ccc2N1C(=O)c1ccc(Cl)cc1	1.49	-15.4	1.7	–
C[C@@H]1[C@@H](CC(=O)O)c2cc(OCc3ccccc3)ccc2N1C(=O)C12CC3CC(CC(C3)C1)C2	1.63	4.8	2.1	Activity [3]: Non-toxic
CN(C)C(=N)NC(=N)N [METFORMIN]	–	–	–	Activity [13]: 51%; Activity [14]: 3.03 mM
C[C@@H]1[C@@H](CC(=O)O)c2cc(OCc3ccccc3)ccc2N1C(=O)c1ccccc1	2.05	6.9	2.14	–
COc1ccc(CC(=O)N2c3ccc(OCc4ccccc4)cc3[C@H](CC(=O)O)[C@H]2C)cc1OC	2	9.9	2.2	–

Second part, led by results:

Ratio [7]	Structure (SMILES)	Activity [4] [%]	Activity [8] [mM]	further results
2.44	Cc1c(CCCC(=O)O)c2cc(OCc3ccccc3)ccc2n1S(=O)(=O)c1ccc(Cl)cc1	38.9	2.78	inhibition in vivo at 30 mg/kg [1]: > 25%; Activity [2]: 18.2%; Activity [3]: Non-toxic; inhibition [5]: Active; inhibition in vivo at 30 mg/kg [6]: 13.9%; Activity [9]: 15.3%
2	C[C@@H]1[C@@H](CC(=O)O)c2cc(OCCc3ccccc3)ccc2N1C(=O)c1ccc(Cl)cc1	2.1	2.05	–
2.14	COc1ccc(C(=O)N2c3ccc(OCc4ccccc4)cc3[C@H](CC(=O)O)[C@H]2C)cc1	10.8	2.22	–
2.72	Cc1c(CCC(=O)O)c2cc(OCc3ccccc3)ccc2n1C(=O)c1ccc(Cl)cc1	26.1	2.53	Activity [2]: 19.2%; Activity [3]: Non-toxic; Activity [9]: 14.1%
1.81	C[C@@H]1[C@@H](CC(=O)O)c2cc(OCCCCc3ccccc3)ccc2N1C(=O)c1ccc(Cl)cc1	-1.2	1.98	–
2.2	C[C@@H]1[C@@H](CC(=O)O)c2cc(OCc3ccccc3)ccc2N1C(=O)Cc1ccc(Cl)cc1	17	2.35	–
3.28	Cc1c(CCCC(=O)O)c2cc(OCc3ccccc3)ccc2n1C(=O)c1ccc(Cl)cc1	27.3	2.55	Activity [2]: 12.5%; Activity [3]: Non-toxic; Activity [9]: 8.3%
1.72	C[C@H]1[C@@H](CC(=O)O)c2cc(OCc3ccccc3)ccc2N1C(=O)c1ccc(Cl)cc1	0.6	2.01	–
3.82	Cc1c(CC(=O)O)c2cc(OCc3ccccc3)ccc2n1C(=O)c1ccc(Cl)cc1	21.9	2.44	inhibition in vivo at 30 mg/kg [1]: > 25%; inhibition in vivo at 30 mg/kg [6]: 13.5%; inhibition in vivo at 30 mg/kg [12]: > 30%
3.51	C[C@@H]1[C@@H](CC(=O)O)c2cc(OCc3ccccc3)ccc2N1C(=O)c1ccc(Cl)cc1	20	2.4	–
2.48	Cc1c(CCC(=O)O)c2cc(OCc3ccccc3)ccc2n1S(=O)(=O)c1ccc(Cl)cc1	22.1	2.45	Activity [2]: 17.7%; Activity [9]: 10.5%
2.05	C[C@@H]1[C@@H](CC(=O)O)c2cc(OCc3ccccc3)ccc2N1C(=O)c1ccc(C#N)cc1	12.6	2.26	–
1.74	C[C@@H]1[C@@H](CC(=O)O)c2cc(OCc3ccccc3)ccc2N1C(=O)c1ccc(F)cc1	11.6	2.24	–
